Assay results taken from patent publication US20100292233A1, “DIHYDRO-1H-PYRROLO[1,2-A]INDOL-1-YL CARBOXYLIC ACID DERIVATIVES WHICH ACT AS S1P1 AGONISTS” (ARENA PHARMACEUTICALS, INC., priority 2008, published 2010).

Tests used:
Lewis rats = assay: Collagen-induced arthritis in rats (ankle diameter); assay type: in vivo; settings: rat, p.o., q.d., day 0 through day 16; 1, 3 and 10 mg/kg; FIG. 4
Protocol: Female Lewis rats were used in this study. Acclimated animals were anesthetized with isoflurane and given the first collagen injection (day 0). On day 6, they were anesthetized again for the second collagen injection. Collagen was prepared by making a 4 mg/mL solution in 0.01 N acetic acid. Equal volumes of collagen and incomplete Freund's adjuvant were emulsified by hand mixing until a bead of this material held its form when placed in water. Each animal received 300 μL of the mixture each time, spread over 3 subcutaneous sites on the back.
Treatment (p.o., q. d., 5 mL/kg dosing volume) began on day 0 and continued through day 16 with vehicle or compounds given at 24 h intervals. Rats were weighed on days 0, 3, 6 and 9 through 17 and caliper measurements of the ankles taken on days 9 through 17. The 2nd enantiomer of Compound 2 (isolated after resolution of compound 2 by HPLC, with a retention time of 14.9 min per the conditions reported in Example 1.25) was dosed at 1, 3 and 10 mg/kg.

C57BL/6 mice [1] = assay: Mouse skin allograft survival; assay type: in vivo; settings: oral, once a day; 1, 3 and 10 mg/kg; FIG. 5
Protocol: Animals: Female BALB/cJ mice (6 to 7 weeks of age at start of study) (Jackson Laboratory, Bar Harbor, Me.) were housed four per cage and maintained in a humidity—(40-60%) and temperature—(68-72° F.) controlled facility on a 12 hr:12 hr light/dark cycle (lights on at 6:30 am) with free access to food (Harlan Teklad, Orange, Calif., Rodent Diet 8604) and water. Female C57BL/6 mice (8 to 10 weeks of age at start of study) (Jackson Laboratory, Bar Harbor, Me.) were similarly housed and maintained. Mice were allowed one week of habituation to the animal facility before testing. […]
Clinical scoring: Skin allografts were inspected and digital images recorded daily until rejection, which was defined as the first day on which more than 80% of the graft is necrotic. […] In an optional related study, on posttransplantation day 5 isolated lymphocytes from peripheral lymph nodes and spleen were counted and characterized for activation markers (e.g., T-cell activation markers) by flow cytometry. Also on day 5, grafts were removed from transplanted recipients, cut into small fragments, digested with collagenase and sedimented over Ficoll-Paque (Pharmacia Biotech, Uppsala, Sweden) to isolate graft-infiltrating lymphocytes, which were counted and characterized for activation markers (e.g., T-cell activation markers) by flow cytometry. […]

C57BL/6 mice [2] = assay: MOG-induced EAE in mice; assay type: in vivo, mouse; settings: oral, once a day from day 3 until day 21; 1, 3 and 10 mg/kg; FIG. 3
Protocol: Animals: Female C57BL/6 mice (8 to 10 weeks of age at start of study) (Jackson Laboratory, Bar Harbor, Me.) were housed four per cage and maintained in a humidity—(40-60%) and temperature—(68-72° F.) controlled facility on a 12 hr:12 hr light/dark cycle (lights on at 6:30 am) with free access to food (Harlan Teklad, Orange, Calif., Rodent Diet 8604) and water. Mice were allowed one week of habituation to the animal facility before testing.
Induction of EAE: Mice were immunized subcutaneously, 50 μL per hind flank, with a total of 100 μg MOG35-55 peptide emulsified 1:1 with Complete Freund's adjuvant containing 4 mg/mL heat-killed Mycobacterium tuberculosis. Mice also received 200 ng pertussis toxin intraperitoneally on the day of immunization and 48 hours later.
Clinical scoring: Severity of disease symptoms was scored as follows (in increasing order of severity): 0=normal; 1=limp tail OR hind limb weakness; 2=limp tail AND limb weakness/weakness of 2 or more limbs; 3=severe limb weakness or single limb paralysis; 4=paralysis of 2 or more limbs; 5=death.
Drug treatment: Mice were dosed orally, with vehicle or test compound, once a day from day 3 until day 21. Dosing volume is 5 mL/kg. […] Mice were monitored daily from day 7 onward for disease symptoms. After the last dose on day 21, disease progression was monitored daily for 2 more weeks.

NOD/Ltj mice = assay: Cyclophosphamide induced type 1 diabetes in mice; assay type: in vivo, mouse; settings: oral, once a day from day 0 until day 25; 3 and 10 mg/kg; FIG. 6
Protocol: Animals: Baseline blood glucose measurements were taken from 9-10 week old female NOD/Ltj mice (Jackson Laboratory, Bar Harbor, Me.) to ensure that they are normoglycemic (blood glucose is 80-120 mg/dL) prior to initiation of the experiment. Blood glucose was measured from tail bleeds using a One Touch Ultra® kit and test strips (LifeScan, Milpitas, Calif.).
Cyclophosphamide induction of Type 1 diabetes: On day 0 and day 14, normoglycemic NOD mice were injected intraperitoneally with 4 mg cyclophosphamide monohydrate (200 mg/kg) dissolved in 0.9% saline. If mice were diabetic (blood glucose is >250 mg/dL) they were not given a booster dose of cyclophosphamide on day 14.
Drug Treatment: Mice were dosed orally, with vehicle or test compound, once a day from day 0 until day 25. Compounds were suspended in 0.5% methyl cellulose vehicle using a sonicator to ensure uniform suspension. Mice were weighed twice weekly and were dosed according to weight. Dosing volume is 5 mL/kg. Test compound was dosed at 3 mg/kg and 10 mg/kg. Blood glucose was measured twice weekly. After dosing was completed at day 25, the mice continued to be monitored and blood glucose measurements were taken once a week for 3 weeks.

Compound: N#Cc1cc(OC(F)(F)F)cc(-c2nc(-c3ccc4c(c3)cc3n4CCC3CC(=O)O)no2)c1 (stereo not drawn) [2nd enantiomer of Compound 2, 2-(7-(5-(3-Cyano-5-(trifluoromethoxy)phenyl)-1,2,4-oxadiazol-3-yl)-2,3-dihydro-1H-pyrrolo[1,2-a]indol-1-yl)acetic Acid]
- reduction of mean ankle diameter vs vehicle (Lewis rats): exhibited activity for reducing mean ankle diameter
- activity in the mouse skin allograft assay (time of rejection vs vehicle) (C57BL/6 mice [1]): exhibited activity in the mouse skin allograft assay
- activity in the mouse EAE assay (severity of disease symptoms vs vehicle) (C57BL/6 mice [2]): exhibited activity in the mouse EAE assay
- activity in the mouse type I diabetes assay (blood glucose vs vehicle) (NOD/Ltj mice): exhibited activity in the mouse type I diabetes assay
